The text below walks through data of patent US6737382B1, “Insecticidal aminothiazole derivatives” (Nippon Soda Co. Ltd., priority 2002, dated 2004).

The test system of one data set is Plutella xylostella. Briefly: whole plant or invertebrate. Type of data set: in vivo. To be noted: in Brassica oleracea, 72 h. The source says: Efficacy Against Plutella xylostella Linne (Px; Diamondback Moth)
The chemical solution at 125 ppm was sprayed on a Cabbage seedling by a glass nozzle using an air compressor. After airdried, a small leaf (ca. 5 cm diameter) was detached from the treated plant and placed in a glass petri dish (ca. 9 cm diameter). Five second-instar larvae of Plutella xylostella were introduced into the petri dish. Three days after the treatment, the number of survival larvae was counted and the mortality was calculated by Abbott's formula. Each test was duplicated.

In a further data set the test system is Pseudaletia separata. As to the kind of experiment: whole plant or invertebrate. To be noted: Mythimna separata, in Zea mays, foliar, 120 h. Type of data set: in vivo. The protocol:
Efficacy Against Pseudaletia separata Walker (Ps; Rice Armyworm)
A piece of Maize leaf (ca. 7×1.5 cm) was dipped in the chemical solution at 125 ppm for 30 sec and air-dried. The leaf was placed in a glass petri dish (9 cm diameter) and five second-instar larvae of Pseudaletia separata were introduced into the petri dish. Five days after the treatment, the number of survival larvae was counted and the mortality was calculated by Abbott's formula. Each test was duplicated.

The subject of a further data set is Tetranychus urticae. Briefly: Efficacy against Tetranychus urticae (two-spotted spider mites), spray on kidney-bean seedling. To be noted: in vivo. The protocol: Efficacy Against Tetranychus urticae (Tu; Two-spotted Spider Mites
Fifteen adult females were inoculated on a potted Kidney-bean seedling. On the next day, the chemical solution at different concentration was sprayed on the Kidney-bean seedling by a glass nozzle using an air compressor. After air-dried the Kidney-bean pot was maintained in a room kept at 25° C. and 65%RH.
On three days after treatment, the numbers of dead and alive mites were counted and mortality was calculated by Abbott's formula.
Each test was duplicated. [formula]

A word on the melting point: it is the temperature of the solid-liquid transition. For the compound `O=C(Nc1nc(C(F)(F)F)c(Br)s1)c1cccs1` [Compound 34, N-(5-Bromo-4-trifluoromethylthiazol-2-yl)thiophene-2-carboxamide], the melting point lay within 184 to 185 °C.
Still for that read-out and setting: with `O=C(Nc1nc(C(F)(F)F)c(I)s1)c1cc(C(F)(F)F)cc(C(F)(F)F)c1` [Compound 102, N-(5-Iodo-4-trifluoromethylthiazol-2-yl)-3,5-bis-trifluoromethylbenzamide] the figure was 172 to 173 °C.
As usually defined, the mortality is the percentage killed. Lower therefore signals a weak lethal effect. Turning to `O=C(Nc1nc(C(F)(F)F)c(I)s1)c1ccc(C(F)(F)F)cc1` [Compound 45, N-(5-Iodo-4-trifluoromethylthiazol-2-yl)-4-trifluoromethyl-benzamide], the mortality at 125 ppm in the data set on Plutella xylostella and in the data set on Pseudaletia separata was 100% each time.
For `O=C(Nc1nc(C(F)(F)F)c(Cl)s1)c1ccc(Cl)c([N+](=O)[O-])c1` [Compound 80, N-(5-Chloro-4-trifluoromethylthiazol-2-yl)-4-chloro-3-nitrobenzamide], the melting point is 183 to 184 °C.
For `O=C(Nc1nc(C(F)(F)F)c(-c2ccc(F)cc2)s1)c1ccc(C(F)(F)F)cc1` [Compound 81, N-(5-(4-Fluorophenyl)-4-trifluoromethylthiazol-2-yl)-4-trifluoromethylbenzamide], the mortality at 125 ppm with Pseudaletia separata turned out to be 100%.
As for `N#CSc1sc(NC(=O)c2cccc(C(F)(F)F)c2)nc1C(F)(F)F` [Compound 131, N-(5-thiocyanato-4-trifluoromethylthiazol-2-yl)-3-trifluoromethylbenzamide], the melting point was in the range of 167 to 168 °C.
On to `O=C(Nc1nc(C(F)(F)F)c(Br)s1)c1ccc(Cl)c(Cl)c1` [Compound 19, N-(5-Bromo-4-trifluoromethylthiazol-2-yl)-3,4-dicloro-benzamide], for which, in the data set on Tetranychus urticae, the mortality is 100%.
In the data set with Pseudaletia separata, `O=C(Nc1nc(C(F)(F)F)c(I)s1)c1c(Cl)cccc1Cl` [Compound 44, N-(5-Iodo-4-trifluoromethylthiazol-2-yl)-2,6-dichloro-benzamide] displayed a mortality at 125 ppm of 100%.
